Test [1] addresses T1, rat androgen receptors (rat AR) (Rattus norvegicus, UniProt P15207).
T1 construct: from tissue; host or cells: prostate of orchiectomized 11-week-old male SD rats (cytosolic supernatant of homogenate)
T1 sequence (P15207 1-902): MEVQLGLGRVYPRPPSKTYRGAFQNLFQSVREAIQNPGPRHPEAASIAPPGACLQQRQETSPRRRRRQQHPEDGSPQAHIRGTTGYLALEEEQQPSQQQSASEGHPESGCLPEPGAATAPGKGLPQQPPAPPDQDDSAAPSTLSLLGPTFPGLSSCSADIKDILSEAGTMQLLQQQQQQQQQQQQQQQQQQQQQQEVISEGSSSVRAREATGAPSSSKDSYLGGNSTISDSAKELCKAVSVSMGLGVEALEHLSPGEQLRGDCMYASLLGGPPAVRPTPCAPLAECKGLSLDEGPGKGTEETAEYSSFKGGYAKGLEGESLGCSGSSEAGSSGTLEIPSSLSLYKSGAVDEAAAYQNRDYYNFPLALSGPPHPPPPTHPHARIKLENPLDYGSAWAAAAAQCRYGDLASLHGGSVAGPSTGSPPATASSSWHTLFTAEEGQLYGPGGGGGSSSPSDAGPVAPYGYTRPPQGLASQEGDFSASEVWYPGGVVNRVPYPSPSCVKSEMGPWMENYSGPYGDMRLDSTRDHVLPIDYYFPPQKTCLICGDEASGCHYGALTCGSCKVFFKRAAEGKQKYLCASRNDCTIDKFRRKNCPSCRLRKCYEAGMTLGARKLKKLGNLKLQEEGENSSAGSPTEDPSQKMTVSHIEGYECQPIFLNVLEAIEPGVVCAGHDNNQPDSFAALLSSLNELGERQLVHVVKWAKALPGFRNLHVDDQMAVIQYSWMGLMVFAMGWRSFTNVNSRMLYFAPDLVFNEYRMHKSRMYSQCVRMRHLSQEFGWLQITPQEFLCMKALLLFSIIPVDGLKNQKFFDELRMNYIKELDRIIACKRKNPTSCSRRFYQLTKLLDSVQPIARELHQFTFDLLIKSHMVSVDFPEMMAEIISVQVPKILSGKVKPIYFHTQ
As to the kind of experiment: Test for competitive binding to rat androgen receptors (rat AR). Conditions: RBA=100×(IC50 of hydroxyflutamide)/(IC50 of compound); 3H-testosterone, rat prostate AR fraction. As to the method:
Preparation of a rat AR fraction: Prostates were harvested into ice-cooled ET buffer (10 mM Tris, 1 mM EDTA, 5 mM DTT, 10 mM sodium molybdate, pH 7.4) 3 days after orchiectomy in 11-week-old male SD rats. The prostate was finely cut, and ET buffer was added, whereafter the mixture was homogenized using a homogenizer. The homogenate was ultracentrifuged (100,000×g, 60 min, 4° C.), and the supernatant was used as a rat AR fraction (hereinafter referred to as ARF).
Binding test: ^3H-testosterone (hereinafter referred to as ^3H-T) was diluted with ET buffer. Dihydrotestosterone (DHT) was prepared so as to have a final concentration of 1 μM which was 400 times the maximum concentration of ^3H-T (2.5 nM). The ^3H-T solution was added to a 1.5 ml tube containing DHT, no DHT, or various concentrations of a test compound. Further, 200 μg ARF was added to adjust the final volume to 100 μl. The mixture was incubated for 2 hours at 4° C., and then 300 μl of a 0.05% dextran T70-1.0% activated carbon solution was added. The mixture was further incubated for 15 minutes in ice to remove the free ^3H-T by adsorption. After centrifugation (4° C., 2,500 rpm, 5 min), 275 μl of the supernatant was harvested into a liquid scintillation vial, and 2 ml of Clear Sol was added. The mixture was stirred, allowed to stand, and measured for ^3H radioactivity with a liquid scintillation counter.
Calculation of the relative binding inhibition rate: The binding inhibition rate (%) of the compound according to the present invention was calculated from the following equation, and the 50% inhibition concentration (IC50) was calculated by the probit analysis of the concentration-binding inhibition curve.
The relative binding inhibition rate (RBA: Relative Binding Affinity) was determined from the following equation (Endocrinology 138, 863-870, 1997): RBA=100×(IC50 of hydroxyflutamide)/(IC50 of a compound of the present invention)

In test [2] the test system is orchiectomized (ORX) rats. As to the kind of experiment: Test Example 2: effect on prostate, levator ani muscle and femoral bone mineral density in ORX rats (subcutaneous). Conditions: for Femoral bone mineral density / Weight of levator ani muscle / Weight of prostate: 5 days a week, 4 weeks. In kind it is in vivo, rat. As to the method: Testes were removed from 12-week-old male SD rats. Starting on the next day, the compound of Example 1 (3, 10, 30 mg/kg) or DHT (0.1, 1, 10 mg/kg) was subcutaneously administered once daily for four consecutive weeks on a 5-day-a-week basis. The Example compound and DHT were dissolved in dimethyl sulfoxide and diluted 10-fold with olive oil to prepare solutions with various concentrations for use in the test. In an ORX control group, dimethyl sulfoxide as diluted 10-fold with olive oil was used for the test. Rats which had been falsely operated on without orchiectomy were used as a sham control group. On the next day after final administration, the wet weights of the ventral prostate and levator ani muscle were measured and the right femoral bone mineral density was measured by DEXA (double energy X-ray absorption) to evaluate the in vivo efficacy of the compound of Example 1.

Test [3] has as its system orchiectomized (ORX) rats. As to the kind of experiment: Test Example 5: effect of oral administration on prostate, levator ani muscle and femoral bone mineral density in ORX rats. The class given is in vivo, rat. As to the method: Testes were removed from 12-week-old male SD rats. Starting on the next day, the compound of Example 1 (100 mg/10 ml/kg) was orally administered once daily for four consecutive weeks on a 5-day-a-week basis. As a positive control, testosterone propionate (TP) (10 mg/kg) was subcutaneously administered once daily on a continuous 5-day-a-week basis. The test compound was suspended in a 0.5% methyl cellulose solution used as a solvent whereas TP was dissolved in dimethyl sulfoxide and diluted 10-fold with olive oil for use in the test. In an ORX control group, dimethyl sulfoxide as diluted 10-fold with olive oil was used for the test. Rats which had been falsely operated on without orchiectomy were used as a sham control group. On the next day after final administration, the wet weights of the ventral prostate and levator ani muscle were measured and the right femoral bone mineral density was measured by DEXA (double energy X-ray absorption) to evaluate the in vivo efficacy of the compound of Example 1. The results are shown in Table 19 and in FIGS. 10 to 12.

Test [4] deals with orchiectomized (ORX) rats. As to the kind of experiment: Test Example 3: effect on prostate, levator ani muscle and femoral bone mineral density in ORX rats (subcutaneous). In kind it is in vivo, rat. As to the method: (§1) Testes were removed from 12-week-old male SD rats. Starting on the next day, the compound of Example 12 or 65 (30 mg/kg) or DHT (0.1, 1, 10 mg/kg) was subcutaneously administered once daily for four consecutive weeks on a 5-day-a-week basis. The Example compounds and DHT were dissolved in dimethyl sulfoxide and diluted 10-fold with olive oil to prepare solutions with various concentrations for use in the test. In an ORX control group, dimethyl sulfoxide as diluted 10-fold with olive oil was used for the test. Rats which had been falsely operated on without orchiectomy were used as a sham control group. On the next day after final administration, the wet weights of the ventral prostate and levator ani muscle were measured and the right femoral bone mineral density was measured by DEXA (double energy X-ray absorption) to evaluate the in vivo efficacy of the compounds of Example 12 and 65.

Test [5] has as its system orchiectomized (ORX) rats. In words: Test Example 4: effect on prostate, levator ani muscle and femoral bone mineral density in ORX rats (subcutaneous). The class given is in vivo, rat. Conditions: for Prostate weight as % of the level of the sham control group: 30 mg/kg sc; for Femoral bone mineral density / Weight of levator ani muscle / Weight of prostate: 30 mg/kg sc once daily, 5 days a week, 4 weeks. As to the method: as §1, with “Example 113” for “Example 12”, “or 114” for “or 65”, “DHT (10” for “DHT (0.1, 1, 10”, “test. […]” for “test. Rats which had been falsely operated on without orchiectomy were used as a sham control group.”, “and 114.” for “and 65.”

Where [6] appears, read: 100 mg/kg PO once daily, 5 days a week, 4 weeks.
[7] abbreviates: 30 mg/kg sc once daily, 5 days a week, 4 weeks.

Take `COCC(=O)NCC(C)(C)[C@H]1Nc2ccc([N+](=O)[O-])cc2C2C=CC[C@H]21` (relative stereo) [Example 1, (3aR*,4S*,9bS*)-2-methoxy-N-[2-methyl-2-(8-nitro-3a,4,5,9b-tetrahydro-3H-cyclopenta[c]quinolin-4-yl)propyl]-1-acetamide]: in test [1], the “RBA (Relative Binding Affinity)” value is 1076. Moreover, the “Femoral bone mineral density” value in test [2] (3 mg/kg sc once daily) amounted to 116 ± 6 mg/cm^2; in test [2] (10 mg/kg sc once daily), 119 ± 3 mg/cm^2; in test [2] (30 mg/kg sc once daily) it was 122 ± 1 mg/cm^2; in test [3] (setting [6]), 135 ± 6 mg/cm^2. The “Weight of levator ani muscle” value in test [2] (3 mg/kg sc once daily) worked out at 56 ± 7 mg/100 g body weight; in test [2] (10 mg/kg sc once daily) it was 65 ± 6 mg/100 g body weight; in test [2] (30 mg/kg sc once daily), 71 ± 4 mg/100 g body weight; in test [3] (setting [6]) it was 87 ± 5 mg/100 g body weight. The Weight of prostate in test [2] (3 mg/kg sc once daily) came out at 41 ± 8 mg/100 g body weight; in test [2] (10 mg/kg sc once daily) it was 61 ± 10 mg/100 g body weight; in test [2] (30 mg/kg sc once daily) it was 82 ± 10 mg/100 g body weight; in test [3] (setting [6]) it was 117 ± 23 mg/100 g body weight. Further, the “Prostate weight as % of the level of the sham control group” value (“Prostate weight as %” for short) is “about 80%” in test [2] (30 mg/kg sc) and “about 75%” in test [3] (100 mg/kg orally).
Consider `CC(C)(CNC(=O)c1ccc(Br)cc1)[C@H]1Nc2ccc([N+](=O)[O-])cc2C2OCC[C@H]21` (relative stereo) [Example 12, (3aS*,4S*,9bS*)-4-bromo-N-[2-methyl-2-(8-nitro-2,3,3a,4,5,9b-hexahydro-furo[3,2-c]quinolin-4-yl)propyl]benzamide], for which the “RBA (Relative Binding Affinity)” value in test [1] is 94. In addition, the “Prostate weight as %” value in test [4] (30 mg/kg sc) is given as “about 35%”. In test [4] (setting [7]), the “Femoral bone mineral density” value is 122 ± 5 mg/cm^2, the “Weight of levator ani muscle” value amounted to 54 ± 5 mg/100 g body weight and the Weight of prostate is reported as 36 ± 6 mg/100 g body weight.
On to `CC(C)(CNC(=O)c1ccc(OC(F)(F)F)cc1)[C@H]1Nc2ccc(C#N)cc2[C@H]2OCC[C@H]21` (relative stereo) [Example 113, (3aS*,4S*,9bS*)-N-[2-(8-cyano-2,3,3a,4,5,9b-hexahydro-furo[3,2-c]quinolin-4-yl)-2-methyl-propyl]-4-trifluoromethoxybenzamide], for which the “RBA (Relative Binding Affinity)” value in test [1] was found to be 58. For the same compound, in test [5], the “Prostate weight as %” value is recorded as “about 40%”, the “Femoral bone mineral density” value is on record as 148 ± 3 mg/cm^2, the “Weight of levator ani muscle” value is given as 65 ± 6 mg/100 g body weight and the Weight of prostate stood at 59 ± 16 mg/100 g body weight.
Turning to `CCOc1ccc(C(=O)NCC(C)(C)[C@H]2Nc3ccc(C#N)cc3[C@H]3OCC[C@H]32)cc1` (relative stereo) [Example 114, (3aS*,4S*,9bS*)-N-[2-(8-cyano-2,3,3a,4,5,9b-hexahydro-furo[3,2-c]quinolin-4-yl)-2-methyl-propyl]-4-ethoxybenzamide], in test [1], the “RBA (Relative Binding Affinity)” value is listed as 55. Moreover, in test [5], the “Prostate weight as %” value was “about 60%”, the “Femoral bone mineral density” value is 150 ± 8 mg/cm^2, the “Weight of levator ani muscle” value was 66 ± 11 mg/100 g body weight and the Weight of prostate was determined as 86 ± 17 mg/100 g body weight.
Turning to `CCOc1ccc(C(=O)NCC(C)(C)[C@H]2Nc3ccc([N+](=O)[O-])cc3C3OCC[C@H]32)cc1` (some centres unmarked) [Example 20], in test [1], the “RBA (Relative Binding Affinity)” value stood at 161.
Still for that read-out and setting: the figure for `CC(C)(O)C(=O)Nc1ccc([N+](=O)[O-])c(C(F)(F)F)c1` [Hydroxyflutamide, hydroxyflutamide, reference compound] is 100.

For the origin of these results see patent publication US20060128737A1, “Androgen receptor agonists” (KAKEN PHARMACEUTICAL CO., LTD., priority 2003, published 2006).
